Measured values published in patent US20240108740A1, “THERAPEUTIC COMPOSITIONS INCLUDING SPN10 AND USES THEREOF” (Stealth BioTherapeutics Inc., priority 2022, published 2024).
Residues, ends and D or L forms follow the SMILES beside them.

Experiments:
mice = assay: Example 57: Ang II-induced hypertensive cardiomyopathy; assay type: in vivo, mouse
Description: Mouse experiments, drug delivery, echocardiography and blood pressure measurement. Six to ten mice will be included in each experimental group (Saline, Ang II, Ang II+peptide conjugate, Ang II+aromatic-cationic peptide, Ang II+SPN10, Ang II+SPN10+aromatic-cationic peptide, WT, Gαq, Gαq+peptide conjugate, Gαq+aromatic-cationic peptide, Gαq+SPN10, Gαq+SPN10+aromatic-cationic peptide). A pressor dose of Ang II (1.1 mg/kg/d) will be continuously administered for 4 weeks using subcutaneous Alzet 1004 osmotic minipumps, either alone or in the presence of with peptide conjugates (3 mg/kg/d), aromatic-cationic peptides (an equivalent molar dose of aromatic-cationic peptide based on concentration of the aromatic-cationic peptide administered in the peptide conjugate group), SPN10(s) (an equivalent molar dose of SPN10 based on concentration of SPN10 administered in the peptide conjugate group), or SPN10(s) in combination with aromatic-cationic peptides (e.g., an equivalent molar dose of SPN10 based on the concentration of SPN10 administered in the peptide conjugate treatment group and an equivalent molar dose of aromatic-cationic peptide based on the concentration of aromatic-cationic peptide administered in the peptide conjugate treatment group). Echocardiography will be performed at baseline and 4 weeks after pump implantation using a Siemens Acuson CV-70 equipped with a 13 MHz probe. […] MTI will be calculated as the ratio of the sum of isovolemic contraction and relaxation time to LV ejection time. […]
Blood pressure will be measured in a separate group of mice by telemetry using an intravascular catheter PA-C 10 (DSI, MN), in which measurement will be performed every three hours starting from 2 days before pump placement until 2 days after Ang pump placement. […]
Quantitative Pathology. […] Quantitative analysis of fibrosis will be performed by measuring the percentage of blue-staining fibrotic tissue relative to the total cross-sectional area of the ventricles. […]

[1] = system: acute myocardial infarction; assay: Infarct size at revascularization in acute myocardial infarction patients; assay type: in vivo, human; details: IV at the time of reperfusion
Excerpt: Men and women, 18 years of age or older, who present after the onset of chest pain, and for whom the clinical decision is made to treat with a revascularization procedure (e.g., PCI or thrombolytics) will be eligible for enrollment. […] The diagnosis is made therefore purely on the basis of symptoms, clinical examination and ECG changes. […] The patient often has a history of having experienced angina, but the ECG at the time of the suspected attack may show no abnormality at all. […] Left ventricular and coronary angiography will be performed with the use of standard techniques, just before revascularization. Revascularization will be performed by PCI with the use of direct stenting. […] The primary end point is the size of the infarct as assessed by measurements of cardiac biomarkers. […] Coronary biomarkers will be measured in each patient. For example, the area under the curve (AUC) (expressed in arbitrary units) for creatine kinase and troponin I release (Beckman kit) may be measured in each patient by computerized planimetry. The principal secondary end point is the size of the infarct as measured by the area of delayed hyperenhancement that is seen on cardiac magnetic resonance imaging (MRI), assessed on day 5 after infarction. […] The images are analyzed in short axis slices covering the entire left ventricle. […]

N=C(N)NCCC[C@H](NC(=O)[C@@H](N)Cc1c[nH]c2ccccc12)C(=O)N[C@@H](Cc1c[nH]c2ccccc12)C(=O)N[C@@H](CCCCN)C(N)=O [SPN10, H-L-Trp-L-Arg-L-Trp-L-Lys-NH2] (H-WRWK-NH2)
Ang II-induced ventricular fibrosis (trichrome) (mice; 4 weeks of Ang II): fully attenuated | cardiac mitochondrial protein carbonyls (mice; 4 weeks of Ang II): significantly reduce cardiac mitochondrial protein carbonyls | Ang II-induced cardiomyopathy (mice; Ang II 1.1 mg/kg/d, 4 weeks): ameliorate Ang II-induced cardiomyopathy | infarct size versus placebo [1]: smaller infarct
